Source: patent US20240245647A1, “ISOMEROHYDROLASE INHIBITOR FOR TREATMENT OF ATROPHIC FORM OF AGE-RELATED MACULAR DEGENERATION AND STARGARDT DISEASE” (The Trustees of Columbia University in the City of New York, priority 2021, published 2024)
Values after ≈ are worked out from the molar mass of the structure shown.

Assay: Thermodynamic aqueous solubility, shake-flask
Assay type: physicochemical
Details: PBS pH 7.4, 24 h, 25° C., assay standards
Excerpt: In addition, chromatographic purity (%) was defined as the peak area of the principal peak relative to the total integrated peak area in the HPLC chromatogram of the calibration standard. A chromatogram of the calibration standard of each test compound, along with a UV/VIS spectrum with labeled absorbance maxima, was generated.

[1] = PBS (shake-flask), aqueous buffer, thermodynamic from solid

Row | SMILES | solubility at 24 h [1] | solubility at 24 h
1 | COCCc1ccc(OCC(O)CNC(C)C)cc1 (centres unmarked) [Metoprolol] | 193 µM (≈ 51.5 µg/mL) | –
2 | O=C1NC(=O)C(c2ccccc2)(c2ccccc2)N1 [Phenytoin] | 102 µM (≈ 25.7 µg/mL) | –
3 | CC/C(=C(/CC)c1ccc(O)cc1)c1ccc(O)cc1 [Diethylstilbesterol] | – | 7.0 µM (≈ 1.88 µg/mL)
4 | CC(=O)N1CCN(c2ccc(OCC3COC(Cn4ccnc4)(c4ccc(Cl)cc4Cl)O3)cc2)CC1 (centres unmarked) [Ketoconazole] | 153 µM (≈ 81.2 µg/mL) | –
5 | CO[C@H]1/C=C/O[C@@]2(C)Oc3c(C)c(O)c4c(O)c(c(/C=N/N5CCN(C)CC5)c(O)c4c3C2=O)NC(=O)/C(C)=C\C=C\[C@H](C)[C@H](O)[C@@H](C)[C@@H](O)[C@@H](C)[C@H](OC(C)=O)[C@@H]1C [Rifampicin] | 200 µM (≈ 165 µg/mL) | –
